{"source": "PubChem BioAssay (NCI)", "experiment_in_all_cases": "growth of human tumour cells (NCI), 48 h", "key": {"786-0 renal": {"system": "786-0 renal"}, "A498 renal": {"system": "A498 renal"}, "A549 NSCLC": {"system": "A549 NSCLC"}, "ACHN renal": {"system": "ACHN renal"}, "BT-549 breast": {"system": "BT-549 breast"}, "CAKI-1 renal": {"system": "CAKI-1 renal"}, "CCRF-CEM leukemia": {"system": "CCRF-CEM leukemia"}, "COLO 205 colon": {"system": "COLO 205 colon"}, "DU-145 prostate": {"system": "DU-145 prostate"}, "EKVX NSCLC": {"system": "EKVX NSCLC"}, "HCC-2998 colon": {"system": "HCC-2998 colon"}, "HCT-116 colon": {"system": "HCT-116 colon"}, "HCT-15 colon": {"system": "HCT-15 colon"}, "HL-60(TB) leukemia": {"system": "HL-60(TB) leukemia"}, "HOP-62 NSCLC": {"system": "HOP-62 NSCLC"}, "HOP-92 NSCLC": {"system": "HOP-92 NSCLC"}, "HS 578T breast": {"system": "HS 578T breast"}, "HT29 colon": {"system": "HT29 colon"}, "IGROV1 ovarian": {"system": "IGROV1 ovarian"}, "K-562 leukemia": {"system": "K-562 leukemia"}, "KM12 colon": {"system": "KM12 colon"}, "LOX IMVI melanoma": {"system": "LOX IMVI melanoma"}, "M14 melanoma": {"system": "M14 melanoma"}, "MALME-3M melanoma": {"system": "MALME-3M melanoma"}, "MCF7 breast": {"system": "MCF7 breast"}, "MDA-MB-231 breast": {"system": "MDA-MB-231 breast"}, "MDA-MB-435": {"system": "MDA-MB-435"}, "MDA-N": {"system": "MDA-N"}, "MOLT-4 leukemia": {"system": "MOLT-4 leukemia"}, "NCI-H226 lung": {"system": "NCI-H226 lung"}, "NCI-H23 lung": {"system": "NCI-H23 lung"}, "NCI-H460 lung": {"system": "NCI-H460 lung"}, "NCI-H522 lung": {"system": "NCI-H522 lung"}, "NCI/ADR-RES ovarian": {"system": "NCI/ADR-RES ovarian"}, "OVCAR-3 ovarian": {"system": "OVCAR-3 ovarian"}, "OVCAR-4 ovarian": {"system": "OVCAR-4 ovarian"}, "OVCAR-5 ovarian": {"system": "OVCAR-5 ovarian"}, "OVCAR-8 ovarian": {"system": "OVCAR-8 ovarian"}, "PC-3 prostate": {"system": "PC-3 prostate"}, "RPMI-8226 leukemia": {"system": "RPMI-8226 leukemia"}, "RXF 393 renal": {"system": "RXF 393 renal"}, "SF-268 CNS": {"system": "SF-268 CNS"}, "SF-295 CNS": {"system": "SF-295 CNS"}, "SF-539 CNS": {"system": "SF-539 CNS"}, "SK-MEL-2 melanoma": {"system": "SK-MEL-2 melanoma"}, "SK-MEL-28 melanoma": {"system": "SK-MEL-28 melanoma"}, "SK-MEL-5 melanoma": {"system": "SK-MEL-5 melanoma"}, "SK-OV-3 ovarian": {"system": "SK-OV-3 ovarian"}, "SN12C renal": {"system": "SN12C renal"}, "SNB-19 CNS": {"system": "SNB-19 CNS"}, "SNB-75 CNS": {"system": "SNB-75 CNS"}, "SR leukemia": {"system": "SR leukemia"}, "SW-620 colon": {"system": "SW-620 colon"}, "T-47D breast": {"system": "T-47D breast"}, "TK-10 renal": {"system": "TK-10 renal"}, "U251 CNS": {"system": "U251 CNS"}, "UACC-257 melanoma": {"system": "UACC-257 melanoma"}, "UACC-62 melanoma": {"system": "UACC-62 melanoma"}, "UO-31 renal": {"system": "UO-31 renal"}}, "note": "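Results reflect a 48-hour exposure of cells in 96-well plates to compound at five concentrations. TGI marks complete inhibition of growth.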", "data": [{"smiles": "COc1cc(C2c3cc4c(cc3OC(N3CCOCC3)C2C)OCO4)cc(OC)c1OC(C)=O", "note": "(centres undefined)", "values": [{"measurement": "TGI", "setting": "786-0 renal", "value": "> 100", "unit": "µM"}, {"measurement": "TGI", "setting": "A498 renal", "value": 81.3, "unit": "µM"}, {"measurement": "TGI", "setting": "A549 NSCLC", "value": "> 100", "unit": "µM"}, {"measurement": "TGI", "setting": "ACHN renal", "value": "> 100", "unit": "µM"}, {"measurement": "TGI", "setting": "BT-549 breast", "value": "> 100", "unit": "µM"}, {"measurement": "TGI", "setting": "CAKI-1 renal", "value": "> 100", "unit": "µM"}, {"measurement": "TGI", "setting": "CCRF-CEM leukemia", "value": "> 100", "unit": "µM"}, {"measurement": "TGI", "setting": "COLO 205 colon", "value": 52, "unit": "µM"}, {"measurement": "TGI", "setting": "DU-145 prostate", "value": "> 92.5", "unit": "µM"}, {"measurement": "TGI", "setting": "EKVX NSCLC", "value": "> 100", "unit": "µM"}, {"measurement": "TGI", "setting": "HCC-2998 colon", "value": 50.5, "unit": "µM"}, {"measurement": "TGI", "setting": "HCT-116 colon", "value": 60.8, "unit": "µM"}, {"measurement": "TGI", "setting": "HCT-15 colon", "value": "> 100", "unit": "µM"}, {"measurement": "TGI", "setting": "HL-60(TB) leukemia", "value": "> 59", "unit": "µM"}, {"measurement": "TGI", "setting": "HOP-62 NSCLC", "value": "> 95.5", "unit": "µM"}, {"measurement": "TGI", "setting": "HOP-92 NSCLC", "value": "> 100", "unit": "µM"}, {"measurement": "TGI", "setting": "HS 578T breast", "value": 25.7, "unit": "µM"}, {"measurement": "TGI", "setting": "HT29 colon", "value": 57.9, "unit": "µM"}, {"measurement": "TGI", "setting": "IGROV1 ovarian", "value": "> 100", "unit": "µM"}, {"measurement": "TGI", "setting": "K-562 leukemia", "value": 49.2, "unit": "µM"}, {"measurement": "TGI", "setting": "KM12 colon", "value": "> 100", "unit": "µM"}, {"measurement": "TGI", "setting": "LOX IMVI melanoma", "value": "> 100", "unit": "µM"}, {"measurement": "TGI", "setting": "M14 melanoma", "value": "> 56.8", "unit": "µM"}, {"measurement": "TGI", "setting": "MALME-3M melanoma", "value": "> 85.7", "unit": "µM"}, {"measurement": "TGI", "setting": "MCF7 breast", "value": "> 100", "unit": "µM"}, {"measurement": "TGI", "setting": "MDA-MB-231 breast", "value": 99.2, "unit": "µM"}, {"measurement": "TGI", "setting": "MDA-MB-435", "value": 14.4, "unit": "µM"}, {"measurement": "TGI", "setting": "MDA-N", "value": 4.94, "unit": "µM"}, {"measurement": "TGI", "setting": "MOLT-4 leukemia", "value": "> 100", "unit": "µM"}, {"measurement": "TGI", "setting": "NCI-H226 lung", "value": 62.7, "unit": "µM"}, {"measurement": "TGI", "setting": "NCI-H23 lung", "value": "> 95.2", "unit": "µM"}, {"measurement": "TGI", "setting": "NCI-H460 lung", "value": "> 100", "unit": "µM"}, {"measurement": "TGI", "setting": "NCI-H522 lung", "value": 33.2, "unit": "µM"}, {"measurement": "TGI", "setting": "NCI/ADR-RES ovarian", "value": 30.8, "unit": "µM"}, {"measurement": "TGI", "setting": "OVCAR-3 ovarian", "value": 59.4, "unit": "µM"}, {"measurement": "TGI", "setting": "OVCAR-4 ovarian", "value": "> 100", "unit": "µM"}, {"measurement": "TGI", "setting": "OVCAR-5 ovarian", "value": "> 100", "unit": "µM"}, {"measurement": "TGI", "setting": "OVCAR-8 ovarian", "value": "> 100", "unit": "µM"}, {"measurement": "TGI", "setting": "PC-3 prostate", "value": "> 100", "unit": "µM"}, {"measurement": "TGI", "setting": "RPMI-8226 leukemia", "value": "> 100", "unit": "µM"}, {"measurement": "TGI", "setting": "RXF 393 renal", "value": "> 62.1", "unit": "µM"}, {"measurement": "TGI", "setting": "SF-268 CNS", "value": "> 100", "unit": "µM"}, {"measurement": "TGI", "setting": "SF-295 CNS", "value": 49, "unit": "µM"}, {"measurement": "TGI", "setting": "SF-539 CNS", "value": 40.2, "unit": "µM"}, {"measurement": "TGI", "setting": "SK-MEL-2 melanoma", "value": 41.1, "unit": "µM"}, {"measurement": "TGI", "setting": "SK-MEL-28 melanoma", "value": "> 91.6", "unit": "µM"}, {"measurement": "TGI", "setting": "SK-MEL-5 melanoma", "value": "> 51", "unit": "µM"}, {"measurement": "TGI", "setting": "SK-OV-3 ovarian", "value": "> 100", "unit": "µM"}, {"measurement": "TGI", "setting": "SN12C renal", "value": "> 84.2", "unit": "µM"}, {"measurement": "TGI", "setting": "SNB-19 CNS", "value": "> 46.4", "unit": "µM"}, {"measurement": "TGI", "setting": "SNB-75 CNS", "value": 25.2, "unit": "µM"}, {"measurement": "TGI", "setting": "SR leukemia", "value": "> 72", "unit": "µM"}, {"measurement": "TGI", "setting": "SW-620 colon", "value": "> 100", "unit": "µM"}, {"measurement": "TGI", "setting": "T-47D breast", "value": "> 81.8", "unit": "µM"}, {"measurement": "TGI", "setting": "TK-10 renal", "value": "> 100", "unit": "µM"}, {"measurement": "TGI", "setting": "U251 CNS", "value": "> 80.9", "unit": "µM"}, {"measurement": "TGI", "setting": "UACC-257 melanoma", "value": "> 100", "unit": "µM"}, {"measurement": "TGI", "setting": "UACC-62 melanoma", "value": "> 84.5", "unit": "µM"}, {"measurement": "TGI", "setting": "UO-31 renal", "value": "> 100", "unit": "µM"}]}]}
